Source: patent US20170247335A1, “FLUORINATED PYRIDAZIN-3-ONES FOR THE USE THEREOF IN THE TREATMENT OF LUNG DISEASES” (UNIVERSITE DE REIMS CHAMPAGNE-ARDENNE, priority 2014, published 2017)

Tests used:
Assay type in all cases: biochemical
[1] = tested on: PDE4 (recombinant human phosphodiesterases PDE4B2 and PDE4D); test: PDE4 enzyme inhibition, colorimetric cAMP cleavage test (5'-nucleotidase, Biomol Green); details: for IC50: average of three independent determinations, non-linear regression, 60 min incubation, 2% DMSO, read-out: CI50 (inhibitory concentration 50)
Experimental: The activity of the PDE1 and PDE10 enzymes was also monitored.
(§1) The principle of the test is based on the cleavage of AMPc by the enzymes phosphodiesterases. The nucleotide-5′ which is sorted out during the reaction is itself cleaved by an enzyme 5′-nucleotidase into a nucleoside and a phosphate, the latter being quantified by using the reagent Biomol Green™.
(§2) The reaction is stopped by adding an amount of 100 microliters of the reagent Biomol Green™ and the plate is incubated for further 30 mins in order to allow development of the colour before reading the absorbance by means of a micro-plate reader.
The CI50s which were calculated represent the average value of three determinations which were achieved independently of each other.
A non-specific inhibitor of the PDE enzymes, 3-isobutyl-1-methylxanthin (IBMX) corresponds to the control.

PDE1 = PDE1 enzyme inhibition, same colorimetric test; details: at a concentration of 50 μM of compound
Experimental: (§3) In order to evaluate the action of the compounds (Ic), (Ig) and (Ii) according to the invention, the activity of different sub-types of phosphodiesterases, either of type 4 or not, was tested in vitro by using a kit adapted to the recombinant isoforms of human phosphodiesterases PDE4B2 and PDE4D coded by Escherichia coli. The activity of the PDE1 and PDE10 enzymes was also monitored.
as §1
(§4) The PDE enzymes are incubated on microplates in the presence of AMPc, 5′-nucleotidase, in the presence of an inhibitor, more particularly corresponding to the compound (Ic), (Ig) or (Ii) according to the invention, or in the absence of any inhibitor (control), and this for a period of the order of 60 mins.
as §2
The study of the inhibition of the PDE enzymes by the compound (Ic), (Ig) or (Ii) according to the invention was carried out by testing […] different concentrations (500 μM, 50 μM, 5 μM and 0.5 μM) of said compounds (Ic), (Ig) or (Ii).

PDE10 = PDE10 (Homo sapiens, UniProt Q9Y233); test: PDE10 enzyme inhibition, same colorimetric test; details: read-out: percentage of inhibition towards PDE10
Sequence of PDE10 (Q9Y233 whole entry): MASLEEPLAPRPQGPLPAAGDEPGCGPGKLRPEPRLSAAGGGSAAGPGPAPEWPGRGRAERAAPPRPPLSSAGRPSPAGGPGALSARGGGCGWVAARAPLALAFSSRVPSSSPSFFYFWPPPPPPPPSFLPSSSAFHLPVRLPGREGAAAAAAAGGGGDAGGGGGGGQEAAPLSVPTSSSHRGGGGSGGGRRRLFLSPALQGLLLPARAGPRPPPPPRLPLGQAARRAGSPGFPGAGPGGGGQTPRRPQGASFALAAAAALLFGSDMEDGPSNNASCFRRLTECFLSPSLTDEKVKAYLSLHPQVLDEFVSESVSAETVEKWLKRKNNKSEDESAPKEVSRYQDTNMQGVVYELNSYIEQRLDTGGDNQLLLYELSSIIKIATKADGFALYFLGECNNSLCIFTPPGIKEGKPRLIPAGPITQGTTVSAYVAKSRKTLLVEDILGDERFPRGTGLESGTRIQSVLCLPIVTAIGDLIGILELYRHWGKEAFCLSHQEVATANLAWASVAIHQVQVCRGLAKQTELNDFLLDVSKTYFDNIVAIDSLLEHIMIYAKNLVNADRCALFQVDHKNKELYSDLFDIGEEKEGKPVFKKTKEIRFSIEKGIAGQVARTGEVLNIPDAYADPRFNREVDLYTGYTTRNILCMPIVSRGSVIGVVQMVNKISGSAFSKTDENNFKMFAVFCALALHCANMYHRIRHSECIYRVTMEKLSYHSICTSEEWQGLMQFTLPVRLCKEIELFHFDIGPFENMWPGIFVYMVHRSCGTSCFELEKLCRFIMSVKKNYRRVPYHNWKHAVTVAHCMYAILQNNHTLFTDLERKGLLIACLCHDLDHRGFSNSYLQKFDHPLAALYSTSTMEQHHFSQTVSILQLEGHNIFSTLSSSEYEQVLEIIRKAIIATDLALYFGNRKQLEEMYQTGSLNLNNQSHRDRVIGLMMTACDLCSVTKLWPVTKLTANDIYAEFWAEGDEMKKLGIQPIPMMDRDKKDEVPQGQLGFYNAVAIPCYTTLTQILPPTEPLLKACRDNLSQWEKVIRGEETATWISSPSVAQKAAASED
Experimental: as §3, §1, §4
The reaction is stopped by adding an amount of 100 microliters of the reagent Biomol Green™ and the plate is incubated for further 30 mins in order to allow development of the colour before reading the absorbance by means of a micro-plate reader. […]

[2] = at a concentration of 50 μM of compound

Row | Structure (SMILES) | inhibition percentage of PDE4 [1, 2] | IC50 [1] | inhibition of PDE1 (PDE1) | inhibition percentage of PDE4 ([1]; at a 5 μM concentration of compound) | inhibition at 50 µM (PDE10)
1 | Cc1ccc(-c2cc(C(F)(F)F)c(=O)n(-c3ccccc3)n2)cc1 [compound (Ig), 4-(trifluoromethyl)-2-phenyl-6-(p-tolyl)pyridazin-3(2H)-one] | 45% | 15 µM | 0% | – | –
2 | COc1ccc(-c2cc(C(F)(F)F)c(=O)[nH]n2)cc1OC [compound (Ic), 4-(trifluoromethyl)-6-(3′,4′-dimethoxyphenyl)pyridazin-3(2H)-one] | 74% | 8.1 µM | 0% | – | –
3 | COc1cc(-c2cc(C(F)(F)F)c(=O)[nH]n2)ccc1OC(F)F [compound (Ii), 6-(4′-(difluoromethoxy)-3′-methoxy-phenyl)-4-(trifluoromethyl)pyridazin-3(2H)-one] | – | 0.25 µM | 0% | 56% | 9%
